Reference: patent publication US20200231638A1, “STABILIZED ANTI-MICROBIAL PEPTIDES” (priority 2015, published 2020)
Bridge positions count the residues as written; N and C are the ends. Square brackets hold non-standard residues; d marks the D form. Peptide text beside a SMILES is read from it. R8 = C=CCCCCCC[C@@](C)(N)C(=O)O; S5 = C=CCCC[C@](C)(N)C(=O)O; Nle = CCCC[C@H](N)C(=O)O

Legend:
E. coli = assay type: cell-based, Escherichia coli
How it was run: (§1)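 Microdilution MIC test in polyanion-depleted MHB, with a final inoculum of 5×10^5 CFU/ml and 20-24 h incubation at 37° C.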

B. cereus = assay type: cell-based, Bacillus cereus
How it was run: as §1

S. aureus = assay type: cell-based, Staphylococcus aureus
How it was run: as §1

P. aeruginosa = assay type: cell-based, Pseudomonas aeruginosa
How it was run: as §1

human red blood cells = assay type: cell-based; conditions: red cells of human, 1 h, 25
How it was run: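 Washed human RBCs as 1% (v/v) suspension in phosphate-buffered saline incubated 1 h at 37° C with serially diluted peptides. Hemoglobin release in supernatant measured spectrophotometrically (570 nm), % hemolysis relative to untreated and 1% Triton-X100 controls; MHC defined as concentration giving less than 1% release.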

| SMILES | MIC E. coli (E. coli) | MIC B. cereus (B. cereus) | MIC S. aureus (S. aureus) | MIC P. aeruginosa (P. aeruginosa) | % Hemolysis at 25 μg/ml (human red blood cells) |
| --- | --- | --- | --- | --- | --- |
| CCCC[C@H](NC(=O)[C@]1(C)CCCC=CCCC[C@](C)(NC(=O)[C@H](CCCCN)NC(=O)[C@H](CCCCN)NC(=O)CNC(=O)[C@H](Cc2ccccc2)NC(=O)[C@H](CCCCN)NC(=O)[C@H](CCCCN)NC(=O)[C@H](C)NC(=O)[C@H](CO)NC(=O)[C@H](Cc2c[nH]cn2)NC(=O)[C@H](CC(C)C)NC(=O)[C@H](Cc2ccccc2)NC(=O)[C@H](CCCCN)NC(=O)CNC(=O)[C@@H](NC(=O)CN)[C@@H](C)CC)C(=O)N[C@@H](C(C)C)C(=O)NCC(=O)N[C@@H](CCC(=O)O)C(=O)N1)C(=O)N[C@@H](CC(N)=O)C(=O)N[C@@H](CO)C(N)=O [Mag(i + 4)15(A15K), GIGKFLHSAKKFGKKXVGEXBNS] (H-GIGKFLHSAKKFGKK[S5]VGE[S5][Nle]NS-NH2; staple 16-20) | 3.1 µg/mL | 6.2 µg/mL | 25 µg/mL | 3.1 µg/mL | 4.1% |
| CCCC[C@H](NC(=O)[C@]1(C)CCCC=CCCC[C@](C)(NC(=O)[C@H](C)NC(=O)[C@H](CCCCN)NC(=O)CNC(=O)[C@H](Cc2ccccc2)NC(=O)[C@H](CCCCN)NC(=O)[C@H](CCCCN)NC(=O)[C@H](C)NC(=O)[C@H](CO)NC(=O)[C@H](Cc2c[nH]cn2)NC(=O)[C@H](CCC(=O)O)NC(=O)[C@H](Cc2ccccc2)NC(=O)[C@H](CCCCN)NC(=O)CNC(=O)[C@@H](NC(=O)CN)[C@@H](C)CC)C(=O)N[C@@H](C(C)C)C(=O)NCC(=O)N[C@@H](CCC(=O)O)C(=O)N1)C(=O)N[C@@H](CC(N)=O)C(=O)N[C@@H](CO)C(N)=O [Mag(i + 4)15(L6E), GIGKFEHSAKKFGKAXVGEXBNS] (H-GIGKFEHSAKKFGKA[S5]VGE[S5][Nle]NS-NH2; staple 16-20) | 50 µg/mL | >50 µg/mL | >50 µg/mL | >50 µg/mL | 1.1% |
| CCCC[C@H](NC(=O)[C@]1(C)CCCC=CCCC[C@](C)(NC(=O)[C@H](C)NC(=O)[C@H](CCCCN)NC(=O)CNC(=O)[C@H](Cc2ccccc2)NC(=O)[C@H](CCCCN)NC(=O)[C@H](CCCCN)NC(=O)[C@H](C)NC(=O)[C@H](CO)NC(=O)[C@H](Cc2c[nH]cn2)NC(=O)[C@H](CC(C)C)NC(=O)[C@H](Cc2ccccc2)NC(=O)[C@H](CCCCN)NC(=O)CNC(=O)[C@@H](NC(=O)CN)[C@@H](C)CC)C(=O)N[C@@H](C(C)C)C(=O)N[C@@H](CCCCN)C(=O)N[C@@H](CCC(=O)O)C(=O)N1)C(=O)N[C@@H](CC(N)=O)C(=O)N[C@@H](CO)C(N)=O [Mag(i + 4)15(G18K), GIGKFLHSAKKFGKAXVKEXBNS] (H-GIGKFLHSAKKFGKA[S5]VKE[S5][Nle]NS-NH2; staple 16-20) | 1.6 µg/mL | 3.1 µg/mL | 12.5 µg/mL | 3.1 µg/mL | 10.1% |
| CCCC[C@H](NC(=O)[C@]1(C)CCCC=CCCC[C@](C)(NC(=O)[C@H](C)NC(=O)[C@H](CCCCN)NC(=O)CNC(=O)[C@H](Cc2ccccc2)NC(=O)[C@H](CCCCN)NC(=O)[C@H](CCCCN)NC(=O)[C@H](C)NC(=O)[C@H](CO)NC(=O)[C@H](Cc2c[nH]cn2)NC(=O)[C@H](CC(C)C)NC(=O)[C@H](Cc2ccccc2)NC(=O)[C@H](CCCCN)NC(=O)CNC(=O)[C@@H](NC(=O)CN)[C@@H](C)CC)C(=O)N[C@@H](C(C)C)C(=O)NCC(=O)N[C@@H](CCC(=O)O)C(=O)N1)C(=O)N[C@@H](CC(N)=O)C(=O)N[C@@H](CCCCN)C(N)=O [Mag(i + 4)15(S23K), GIGKFLHSAKKFGKAXVGEXBNK] (H-GIGKFLHSAKKFGKA[S5]VGE[S5][Nle]NK-NH2; staple 16-20) | 1.6 µg/mL | 6.2 µg/mL | 50 µg/mL | 3.1 µg/mL | 5.0% |
| CCCC[C@H](NC(=O)[C@@H](NC(=O)[C@]1(C)CCCC=CCCCCCC[C@@](C)(NC(=O)[C@H](CCCCN)NC(=O)[C@H](CCCCN)NC(=O)[C@H](C)NC(=O)[C@H](CO)NC(=O)[C@H](Cc2c[nH]cn2)NC(=O)[C@H](CC(C)C)NC(=O)[C@H](Cc2ccccc2)NC(=O)[C@H](CCCCN)NC(=O)CNC(=O)[C@@H](NC(=O)CN)[C@@H](C)CC)C(=O)NCC(=O)N[C@@H](CCCCN)C(=O)N[C@@H](C)C(=O)N[C@@H](Cc2ccccc2)C(=O)N[C@@H](C(C)C)C(=O)NCC(=O)N1)[C@@H](C)CC)C(=O)N[C@@H](CC(N)=O)C(=O)N[C@@H](CO)C(N)=O [Mag(i + 7)11] (H-GIGKFLHSAKK[R8]GKAFVG[S5]I[Nle]NS-NH2; staple 12-19 (inferred); N-terminus and C-terminus assumed) | 1.6 µg/mL | 3.1 µg/mL | 3.1 µg/mL | 1.6 µg/mL | 84.8% |
| CCCC[C@H](NC(=O)[C@]1(C)CCCC=CCCC[C@](C)(NC(=O)[C@H](C)NC(=O)[C@H](CCCCN)NC(=O)CNC(=O)[C@H](Cc2ccccc2)NC(=O)[C@H](CCCCN)NC(=O)[C@H](CCCCN)NC(=O)[C@H](C)NC(=O)[C@H](CO)NC(=O)[C@H](Cc2c[nH]cn2)NC(=O)[C@H](CC(C)C)NC(=O)[C@H](Cc2ccccc2)NC(=O)[C@H](CCCCN)NC(=O)[C@H](Cc2c[nH]cn2)NC(=O)[C@@H](NC(=O)CN)[C@@H](C)CC)C(=O)N[C@@H](C(C)C)C(=O)NCC(=O)N[C@@H](CCC(=O)O)C(=O)N1)C(=O)N[C@@H](CC(N)=O)C(=O)N[C@@H](CO)C(N)=O [Mag(i + 4)15(G3H), GIHKFLHSAKKFGKAXVGEXBNS] (H-GIHKFLHSAKKFGKA[S5]VGE[S5][Nle]NS-NH2; staple 16-20) | 1.6 µg/mL | 6.2 µg/mL | 25 µg/mL | 12.5 µg/mL | 5.1% |
| CCCC[C@H](NC(=O)[C@]1(C)CCCC=CCCC[C@](C)(NC(=O)[C@H](C)NC(=O)[C@H](CCCCN)NC(=O)CNC(=O)[C@H](Cc2ccccc2)NC(=O)[C@H](CCCCN)NC(=O)[C@H](CCCCN)NC(=O)[C@H](C)NC(=O)[C@H](CO)NC(=O)[C@H](Cc2c[nH]cn2)NC(=O)[C@H](CC(C)C)NC(=O)[C@H](CCCCN)NC(=O)[C@H](CCCCN)NC(=O)CNC(=O)[C@@H](NC(=O)CN)[C@@H](C)CC)C(=O)N[C@@H](C(C)C)C(=O)NCC(=O)N[C@@H](CCC(=O)O)C(=O)N1)C(=O)N[C@@H](CC(N)=O)C(=O)N[C@@H](CO)C(N)=O [Mag(i + 4)15(F5K), GIGKKLHSAKKFGRAXVGEXBNS] (H-GIGKKLHSAKKFGKA[S5]VGE[S5][Nle]NS-NH2; staple 16-20; N-terminus and C-terminus assumed) | 3.1 µg/mL | >50 µg/mL | >50 µg/mL | 12.5 µg/mL | 1.7% |
| CCCC[C@H](NC(=O)[C@]1(C)CCCC=CCCC[C@](C)(NC(=O)[C@H](C)NC(=O)[C@H](CCCCN)NC(=O)CNC(=O)[C@H](Cc2ccccc2)NC(=O)[C@H](CCC(=O)O)NC(=O)[C@H](CCCCN)NC(=O)[C@H](C)NC(=O)[C@H](CO)NC(=O)[C@H](Cc2c[nH]cn2)NC(=O)[C@H](CC(C)C)NC(=O)[C@H](Cc2ccccc2)NC(=O)[C@H](CCCCN)NC(=O)CNC(=O)[C@@H](NC(=O)CN)[C@@H](C)CC)C(=O)N[C@@H](C(C)C)C(=O)NCC(=O)N[C@@H](CCC(=O)O)C(=O)N1)C(=O)N[C@@H](CC(N)=O)C(=O)N[C@@H](CO)C(N)=O [Mag(i + 4)15(K11E), GIGKFLHSAKEFGKAXVGEXBNS] (H-GIGKFLHSAKEFGKA[S5]VGE[S5][Nle]NS-NH2; staple 16-20) | 6.2 µg/mL | 12.5 µg/mL | 50 µg/mL | >50 µg/mL | 2.9% |
| CCCC[C@H](NC(=O)[C@]1(C)CCCC=CCCC[C@](C)(NC(=O)[C@H](C)NC(=O)[C@H](CCCCN)NC(=O)CNC(=O)[C@H](Cc2ccccc2)NC(=O)[C@H](CCCCN)NC(=O)[C@H](CCCCN)NC(=O)[C@H](C)NC(=O)[C@H](CO)NC(=O)[C@H](Cc2c[nH]cn2)NC(=O)[C@H](CC(C)C)NC(=O)[C@H](Cc2ccccc2)NC(=O)[C@H](CCC(=O)O)NC(=O)CNC(=O)[C@@H](NC(=O)CN)[C@@H](C)CC)C(=O)N[C@@H](C(C)C)C(=O)NCC(=O)N[C@@H](CCC(=O)O)C(=O)N1)C(=O)N[C@@H](CC(N)=O)C(=O)N[C@@H](CO)C(N)=O [Mag(i + 4)15(K4E), GIGEFLHSAKKFGKAXVGEXBNS] (H-GIGEFLHSAKKFGKA[S5]VGE[S5][Nle]NS-NH2; staple 16-20) | 12.5 µg/mL | 50 µg/mL | >50 µg/mL | >50 µg/mL | 2.2% |
| CCCC[C@H](NC(=O)[C@]1(C)CCCC=CCCC[C@](C)(NC(=O)[C@H](C)NC(=O)[C@H](CCCCN)NC(=O)CNC(=O)[C@H](Cc2ccccc2)NC(=O)[C@H](CCCCN)NC(=O)[C@H](CCCCN)NC(=O)[C@H](C)NC(=O)[C@H](CO)NC(=O)[C@H](Cc2c[nH]cn2)NC(=O)[C@H](CC(C)C)NC(=O)[C@H](Cc2ccccc2)NC(=O)[C@H](CCCCN)NC(=O)CNC(=O)[C@@H](NC(=O)CN)[C@@H](C)CC)C(=O)N[C@@H](C(C)C)C(=O)NCC(=O)N[C@@H](CCC(=O)O)C(=O)N1)C(=O)N[C@@H](CC(N)=O)C(=O)N[C@@H](CCC(=O)O)C(N)=O [Mag(i + 4)15(S23E), GIGKFLHSAKKFGKAXVGEXBNE] (H-GIGKFLHSAKKFGKA[S5]VGE[S5][Nle]NE-NH2; staple 16-20) | 3.1 µg/mL | 12.5 µg/mL | 25 µg/mL | 12.5 µg/mL | 4.9% |
